The values that follow come from US6001799A, “Method of treating hepatitis C in non-responders to interferon treatment” (SciClone Pharmaceuticals, Inc., priority 1993, dated 1999).

Where no end group is shown, it is not given here.

One series deals with Hepatitis C. As to the kind of experiment: Treatment of Hepatitis C patients with Thymosin α-1 during α-IFN administration (Example 6). The series is classed as in vivo, human. As to conditions: after 6 months. As for the experimental part:
The course of the disease and its response to drug treatments may be followed by clinical examination and laboratory findings.
Efficacy of Thymosin α-1 for treatment of Hepatitis C was shown in two Hepatitis C patients who were previous non-responders to α-interferon. These two patients were treated with Thymosin α-1 by subcutaneous injection of 1 mg thereof twice weekly, during administration three times weekly of 2 million units of α-IFN. […] In three additional Hepatitis C patients treated as above, serum ALT levels were reduced 50% after 6 months.

The test system of series [1] is response to influenza vaccine. To be noted: cited from earlier work.
The test system of series [2] is Woodchuck Hepatitis Virus. As to conditions: infected woodchuck; cited from earlier work.
Another series relates to hepatitis B virus (HBV). As to conditions: treated for a year, cited from earlier work.
The test system of series [3] is nonsmall cell lung cancer. As to conditions: both THNα1 treatment groups; cited from earlier work.
Another series concerns HCV-related diseases. To be noted: in vivo; cited from earlier work.

“Thymosin α-1 (SDAAVDTSSEITTKDLKEKKEVVEEAEN; ends and bridges not checked; UniProt P06454 2-29, looked up)”: the “reduction of serum ALT (threshold not achieved)” value in the series with Hepatitis C (six additional Hepatitis C patients, same regimen with α-IFN) is reported as under 50%. Also, the “response to treatment (serum ALT levels reduced to normal)” value in the series on Hepatitis C (six other Hepatitis C patients, same regimen with α-IFN) is “complete response”. The “serum ALT levels reduced” value with Hepatitis C (three additional Hepatitis C patients, same regimen with α-IFN) stood at 50%. The “reduction of serum alanine transaminase (ALT)” value in the series on Hepatitis C (two patients, previous non-responders to α-interferon, 1 mg s.c. twice weekly during 2 million units α-IFN three times weekly) is given as 50%. Moreover, in series [1] (s.c. twice weekly from vaccination, six weeks post-vaccine), the antibody to influenza entry was “higher levels of antibody to influenza than controls”. In series [1] (s.c. twice weekly), the “toxicity in drug recipients” value is on record as “No clinical or biochemical toxicity”. In addition, in series [2], the clinical parameters result is given as “no improvement” and the “viral DNA replication” value was “suppressed viral DNA replication”. Moreover, the “serum ALT” value in the series with hepatitis B virus (HBV) (THNα1 5 patients, TF-5 2 patients) is recorded as “marked decrease”. Also, in the series on hepatitis B virus (HBV) (THNα1 and TF-5 patients pooled), the “patients initially positive for HBSAg who cleared this antigen” value is recorded as 5 of 6 and the “patients with reduced levels of serum HBV DNA” value was 6 of the 7. In series [3], the “relapse-free survival and overall survival versus placebo group” value is given as “greater”.
Take `Nc1nc2c(ncn2COCCO)c(=O)[nH]1` [acyclovir]: the “effectiveness in halting or slowing progression of HCV-related diseases” value with HCV-related diseases is “ineffective”.
